Assay: xn = mol fraction of the nth substance listed
Settings: 298.15 K, Liquid

CCO [ethanol] + O
mass density [kg/m3]
Settings	100 kPa	10000 kPa
x1 = 0.003	995.3	999.8
x1 = 0.0042	994.5	998.9
x1 = 0.0082	993	997.3
x1 = 0.0119	991.5	995.8
x1 = 0.0158	989.8	994
x1 = 0.0184	988.4	992.6
x1 = 0.0219	987.6	991.7
x1 = 0.0255	986	990.2
x1 = 0.0279	984.7	988.7
x1 = 0.0315	984	988
x1 = 0.0366	981.6	985.7
x1 = 0.0392	980.7	984.7
x1 = 0.0439	979.2	983.3
x1 = 0.0483	977.5	981.6
x1 = 0.0516	977.1	981
x1 = 0.0559	975.8	979.8
x1 = 0.06	974.5	978.5
x1 = 0.0652	972.9	976.9
x1 = 0.0679	972.2	976.1
x1 = 0.0722	971	974.9
x1 = 0.0801	968.6	972.4
x1 = 0.084	967.9	971.8
x1 = 0.0879	966.7	970.6
x1 = 0.0926	965.6	969.3
x1 = 0.0958	964.6	968.5
x1 = 0.1006	963.2	967.1
x1 = 0.1111	960.2	964.1
x1 = 0.1225	956.8	960.7
x1 = 0.1296	954.9	958.8
x1 = 0.1402	951.8	955.8
x1 = 0.151	948.4	952.5
x1 = 0.1601	945.6	949.8
x1 = 0.1703	942.5	946.7
x1 = 0.18	939.8	943.9
x1 = 0.1903	936.5	940.9
x1 = 0.1996	933.5	938
x1 = 0.2269	925.4	930
x1 = 0.2502	918.5	923.3
x1 = 0.2745	911.7	916.6
x1 = 0.3009	904.5	909.6
x1 = 0.35	891.9	897.1
x1 = 0.4034	879.4	884.9
x1 = 0.4501	868.8	874.7
x1 = 0.498	859.3	865.4
x1 = 0.5501	849.5	855.8
x1 = 0.5998	840.9	847.4
x1 = 0.6489	832.7	839.5
x1 = 0.6967	825.2	–
x1 = 0.7475	818.2	–
x1 = 0.7996	810.9	–
x1 = 0.8484	804.4	–
x1 = 0.8993	798	–
x1 = 0.9503	791.7	–
x1 = 1	785.7	–
